# Data as given in US11786503B2, “Pharmaceutical compositions and methods for countering chemotherapy induced cardiotoxicity” (Auransa Inc., priority 2016, dated 2023).
# pEC50: −log10 of the molar value. Read-outs that look alike come from different tables or passages of the source.
# Tests used:
# TOPOIIα = target: T1, TOPOIIα (Homo sapiens, UniProt P11388); assay: kDNA decatenation assay, TOPOIIα; type: biochemical; settings: for TOPOIIα inhibition, in words: decatenation assay;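 on all read-outs here: kDNA incubated with one unit of TOPOIIα at 37 °C for 30 min, decatenated product resolved on 1% agarose gel, inhibition from relative band intensity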
# T1 construct: purchased Inspiralis
# TOPOIIβ = target: T2, TOPOIIβ (Homo sapiens, UniProt Q02880); assay: kDNA decatenation assay, TOPOIIβ; type: biochemical; settings: for TOPOIIβ inhibition, in words: decatenation assay;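 on all read-outs here: kinetoplast DNA incubated with one unit of TOPOIIβ at 37 °C for 30 min, decatenated product resolved on 1% agarose gel, inhibition scored from relative band intensity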
# T2 construct: purchased Inspiralis
# [1] = system: Doxorubicin treated human iPSC-derived cardiomyocytes; assay: iPSC-CM protection by myricetin analogs (Table 1); type: cell-based; settings: for cardioprotection, in words: Table 1
# [2] = Homo sapiens, iPSC-CM, initial screen at 10 μM or 100 μM, read-out: iPSC-CM protection Max Effect (%), class symbol
# [3] = Homo sapiens, iPSC-CM, read-out: iPSC-CM protection Max Effect (%), class symbol
# T1 sequence (P11388 whole entry): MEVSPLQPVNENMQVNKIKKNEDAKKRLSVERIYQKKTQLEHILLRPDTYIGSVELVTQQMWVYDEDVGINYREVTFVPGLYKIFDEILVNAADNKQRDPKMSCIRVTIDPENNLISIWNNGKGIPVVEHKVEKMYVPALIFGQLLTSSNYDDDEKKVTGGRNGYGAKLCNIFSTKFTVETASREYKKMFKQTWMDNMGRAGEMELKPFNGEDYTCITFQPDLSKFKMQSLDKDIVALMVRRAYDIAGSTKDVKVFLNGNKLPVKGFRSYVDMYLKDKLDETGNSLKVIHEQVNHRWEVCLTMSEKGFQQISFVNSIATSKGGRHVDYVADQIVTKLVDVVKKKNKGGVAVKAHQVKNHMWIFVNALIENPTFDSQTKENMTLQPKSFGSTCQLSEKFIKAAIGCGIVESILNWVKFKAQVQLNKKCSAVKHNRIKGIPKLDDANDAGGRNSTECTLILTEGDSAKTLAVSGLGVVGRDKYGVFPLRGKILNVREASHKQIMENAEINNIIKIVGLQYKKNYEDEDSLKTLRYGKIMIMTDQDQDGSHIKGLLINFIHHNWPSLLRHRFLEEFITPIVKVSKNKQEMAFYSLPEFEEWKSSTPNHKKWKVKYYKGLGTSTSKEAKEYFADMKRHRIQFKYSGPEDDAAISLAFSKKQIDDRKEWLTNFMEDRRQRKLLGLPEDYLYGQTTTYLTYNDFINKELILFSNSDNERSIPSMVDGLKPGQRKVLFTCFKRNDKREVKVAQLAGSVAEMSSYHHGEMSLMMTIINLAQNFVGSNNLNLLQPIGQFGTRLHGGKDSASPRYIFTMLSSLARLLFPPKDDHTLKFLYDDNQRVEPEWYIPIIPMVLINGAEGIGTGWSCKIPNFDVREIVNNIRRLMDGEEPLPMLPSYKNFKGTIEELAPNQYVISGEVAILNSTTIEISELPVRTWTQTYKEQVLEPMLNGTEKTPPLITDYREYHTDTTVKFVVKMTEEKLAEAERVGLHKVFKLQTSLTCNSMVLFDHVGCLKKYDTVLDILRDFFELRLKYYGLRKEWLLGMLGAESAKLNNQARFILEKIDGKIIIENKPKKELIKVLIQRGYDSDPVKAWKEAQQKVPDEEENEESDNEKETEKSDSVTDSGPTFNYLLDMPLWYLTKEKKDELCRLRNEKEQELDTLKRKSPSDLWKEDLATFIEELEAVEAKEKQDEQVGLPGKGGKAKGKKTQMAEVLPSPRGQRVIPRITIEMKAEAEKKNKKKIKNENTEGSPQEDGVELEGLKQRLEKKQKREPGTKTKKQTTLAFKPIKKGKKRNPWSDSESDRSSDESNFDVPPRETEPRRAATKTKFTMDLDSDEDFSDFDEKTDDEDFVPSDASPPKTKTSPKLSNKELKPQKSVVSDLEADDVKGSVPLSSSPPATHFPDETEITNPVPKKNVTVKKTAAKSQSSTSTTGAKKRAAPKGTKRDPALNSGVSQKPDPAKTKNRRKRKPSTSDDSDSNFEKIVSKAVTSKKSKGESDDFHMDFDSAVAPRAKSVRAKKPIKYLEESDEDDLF
# T2 sequence (Q02880 whole entry): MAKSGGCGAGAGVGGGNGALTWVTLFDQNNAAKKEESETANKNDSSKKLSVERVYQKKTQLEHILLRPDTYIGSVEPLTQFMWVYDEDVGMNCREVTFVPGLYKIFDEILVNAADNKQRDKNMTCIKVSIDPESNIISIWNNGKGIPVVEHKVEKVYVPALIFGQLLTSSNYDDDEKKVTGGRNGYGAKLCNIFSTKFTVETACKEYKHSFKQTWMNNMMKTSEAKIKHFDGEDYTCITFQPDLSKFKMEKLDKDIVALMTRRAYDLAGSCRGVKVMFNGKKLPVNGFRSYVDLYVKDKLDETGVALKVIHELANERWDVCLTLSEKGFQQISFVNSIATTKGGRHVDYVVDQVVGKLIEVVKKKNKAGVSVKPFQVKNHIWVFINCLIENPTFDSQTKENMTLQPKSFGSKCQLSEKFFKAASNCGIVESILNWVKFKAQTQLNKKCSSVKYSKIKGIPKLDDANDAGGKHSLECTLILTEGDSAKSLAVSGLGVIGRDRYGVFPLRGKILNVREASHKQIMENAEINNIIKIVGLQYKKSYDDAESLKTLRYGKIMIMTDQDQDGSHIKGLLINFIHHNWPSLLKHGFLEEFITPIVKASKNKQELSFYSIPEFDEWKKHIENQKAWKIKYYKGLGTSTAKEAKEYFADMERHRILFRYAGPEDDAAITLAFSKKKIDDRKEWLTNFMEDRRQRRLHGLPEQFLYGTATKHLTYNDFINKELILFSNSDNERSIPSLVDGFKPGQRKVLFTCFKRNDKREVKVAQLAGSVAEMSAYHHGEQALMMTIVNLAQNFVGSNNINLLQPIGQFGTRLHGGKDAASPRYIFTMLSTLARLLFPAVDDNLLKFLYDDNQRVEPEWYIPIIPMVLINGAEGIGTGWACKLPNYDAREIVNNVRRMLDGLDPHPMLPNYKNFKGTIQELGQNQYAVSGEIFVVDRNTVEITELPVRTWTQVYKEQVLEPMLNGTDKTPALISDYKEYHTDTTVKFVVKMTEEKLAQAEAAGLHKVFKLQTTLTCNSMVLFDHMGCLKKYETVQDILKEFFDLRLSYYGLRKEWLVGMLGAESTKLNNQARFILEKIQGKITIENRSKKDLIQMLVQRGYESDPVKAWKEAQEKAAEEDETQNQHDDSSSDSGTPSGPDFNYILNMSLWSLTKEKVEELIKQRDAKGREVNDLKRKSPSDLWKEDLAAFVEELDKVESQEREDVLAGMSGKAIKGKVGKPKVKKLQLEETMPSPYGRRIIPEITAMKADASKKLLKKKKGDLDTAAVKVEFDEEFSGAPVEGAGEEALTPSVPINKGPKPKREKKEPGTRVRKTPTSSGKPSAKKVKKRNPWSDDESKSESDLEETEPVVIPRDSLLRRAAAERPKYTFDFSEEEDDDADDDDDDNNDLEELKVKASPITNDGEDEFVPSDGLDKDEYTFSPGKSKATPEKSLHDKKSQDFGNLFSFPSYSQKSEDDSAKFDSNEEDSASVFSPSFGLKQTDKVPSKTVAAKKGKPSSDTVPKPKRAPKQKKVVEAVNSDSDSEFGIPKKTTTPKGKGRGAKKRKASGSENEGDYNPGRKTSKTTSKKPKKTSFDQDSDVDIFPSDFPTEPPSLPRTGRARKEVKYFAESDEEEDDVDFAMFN
Compound,Rescue [1],"Emax [1, 2]",other results
"O=C1c2ccc(O)cc2OC(c2cc(O)c(O)c(O)c2)C1O (stereo in doubt) [Compound 30, dihydrorobinetin]",,,"TOPIIα Inhibition (TOPOIIα): −; TOPOIIα inhibition, in words (TOPOIIα): no inhibitory activity; TOPIIβ Inhibition (TOPOIIβ): −; TOPOIIβ inhibition, in words (TOPOIIβ): no inhibitory activity; iPSC-CM protection Max Effect (%) [1]: 53%; pEC50 ([1]; read-out: iPSC-CM protection EC50): 4.85"
"COc1ccc2c(=O)c(OC)c(-c3cc(OC)c(OC)c(OC)c3)oc2c1 [3,7,3′,4′,5′-O-pentamethylrobinetin]",,,"TOPOIIα inhibition, in words (TOPOIIα): entirely failed to display cardioprotection or TOPOII inhibition; TOPOIIβ inhibition, in words (TOPOIIβ): entirely failed to display cardioprotection or TOPOII inhibition; cardioprotection, in words [1]: entirely failed to display cardioprotection or TOPOII inhibition"
"COc1cc(-c2oc3cc(O)cc(O)c3c(=O)c2O)cc(OC)c1OC [3′,4′,5′-O-trimethylmyricetin]",,,"TOPOIIα inhibition, in words (TOPOIIα): entirely failed to display cardioprotection or TOPOII inhibition; TOPOIIβ inhibition, in words (TOPOIIβ): entirely failed to display cardioprotection or TOPOII inhibition; cardioprotection, in words [1]: entirely failed to display cardioprotection or TOPOII inhibition"
"O=c1cc(-c2cc(O)c(O)c(O)c2)oc2ccccc12 [3′,4′,5′-trihydroxyflavone]",,,"pEC50 ([1]; Homo sapiens, Cardiomyocyte, read-out: potency for cardioprotection): ≤ 4.52"
"O=c1c(O)c(-c2ccc(O)c(O)c2)oc2cc(O)ccc12 [Compound 5, 3,7,3′,4′-tetrahydroxyflavone]",,,"pEC50 ([1]; Homo sapiens, iPSC-CM, read-out: iPSC-CM protection EC50): 4.79; Emax ([1]; Homo sapiens, iPSC-CM, read-out: iPSC-CM protection Max Effect (%)): 36%"
"O=c1cc(-c2ccc(O)cc2)oc2cc(O)cc(O)c12 [Compound 13, 5,7,4′,-trihydroxyflavone]",−,< 30%,
"O=c1cc(-c2ccc(O)c(O)c2)oc2ccccc12 [Compound 14, 3′,4′-dihydroxyflavone]",−,< 30%,
"O=c1cc(-c2ccc(O)cc2)oc2cc(O)ccc12 [Compound 15, 7,4′-dihydroxyflavone]",−,< 30%,
"O=c1c(O)c(-c2ccc(O)cc2)oc2ccccc12 [Compound 16, 3,4′-dihydroxyflavone]",−,< 30%,
"O=c1cc(-c2ccc(O)cc2)oc2ccccc12 [Compound 17, 4′-hrydroxyflavone]",−,,"iPSC-CM protection Max Effect (%), class symbol ([1]; initial screen at 10 μM or 100 μM): † (Compounds failed to exhibit >30% protection Max Effect at 10 μM or 100 μM on initial screen.)"
"O=c1c(O)c(-c2cccc(O)c2)oc2cc(O)ccc12 [Compound 18, 3,7,3′-trihydroxyflavone]",−,< 30%,
"O=c1c(O)c(-c2ccccc2)oc2cc(O)cc(O)c12 [Compound 19, 3,5,7-trihydroxyflavone]",−,< 30%,
"O=c1c(O)c(-c2ccccc2)oc2cc(O)ccc12 [Compound 20, 3,7-dihydroxyflavone]",−,,
"O=c1cc(-c2cccc(O)c2)oc2cc(O)ccc12 [Compound 21, 7,3′-dihydroxyflavone]",−,< 30%,
"O=c1c(O)c(-c2cccc(O)c2)oc2ccccc12 [Compound 22, 3,3′-dihydroxyflavone]",−,< 30%,
"O=c1cc(-c2ccccc2)oc2cc(O)cc(O)c12 [Compound 23, 5,7-dihydroxyflavone]",−,< 30%,
"O=c1cc(-c2ccccc2)oc2cc(O)ccc12 [Compound 24, 7-hydroxyflavone]",−,,"Emax [1, 3]: < 30%"
"O=c1c(O)c(-c2ccccc2)oc2ccccc12 [Compound 25, 3-hydroxyflavone]",−,< 30%,
"O=c1cc(-c2cc(O)cc(O)c2)oc2ccccc12 [Compound 26, 3′,5′-dihydroxyflavone]",−,,"Emax [1, 3]: < 30%"
"O=c1cc(-c2cccc(O)c2)oc2ccccc12 [Compound 27, 3′-hydroxyflavone]",−,< 30%,
"O=c1cc(-c2ccccc2)oc2ccccc12 [Compound 28, flavone]",−,< 30%,
